This is an account of results in ChEMBL document CHEMBL1201862, “PubChem BioAssay data set” (2004).

The structures appear in SMILES notation.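 Interpolation was linear, between the two tested concentrations surrounding the appropriate level; five concentrations were tested over 48 hours in 96-well plates. At the GI50, growth is halved.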 Activity calls are given as the source filed them. Rule as the data show it: active = GI50 up to about 1.1 µM and inactive = higher.

Test systems include A498; A549; COLO 205; HL-60; Hs-578T; K562; KM12; MDA-MB-435; OVCAR-5; OVCAR-8; SF-539; SR; T47D; U-251; HCC 2998; HCT-15; HOP-92; NCI-H522; NCI/ADR-RES; SNB-75.
What all share (experiment): growth of human tumour cells (NCI), 48 h

For `CCOC(=O)c1c(NC(=O)c2ccc(Br)cc2)sc2c1CCCC2`, the GI50 in the assay with A498 is 25.1 µM (inactive); in the assay with A549, > 100 µM (inactive); with COLO 205, > 100 µM (inactive); in the assay on HL-60 it was > 100 µM (inactive); in the assay on Hs-578T, 75.5 µM (inactive); in the assay on K562, > 100 µM (inactive). For the same compound, the GI50 in the assay on KM12 was 39.1 µM (inactive); in the assay on MDA-MB-435, > 100 µM (inactive); in the assay with OVCAR-5 it was > 100 µM (inactive); in the assay with OVCAR-8 it was > 100 µM (inactive); in the assay on SF-539 it was > 100 µM (inactive); in the assay with SR, > 100 µM (inactive). For the same compound, the GI50 with T47D and in the assay with U-251 was > 100 µM (inactive) in each case.
Regarding `N#Cc1c(C#N)c(SSc2c(C#N)c(C#N)c(N)n2-c2ccccc2)n(-c2ccccc2)c1N`, the GI50 is 20.7 µM (inactive) with A498; 36 µM (inactive) with A549; 1.99 µM (inactive) with COLO 205; 20.9 µM (inactive) in the assay with HCC 2998; 2.77 µM in the assay on HCT-15; 2.08 µM (inactive) in the assay with HOP-92. Moreover, the GI50 was 24.7 µM (inactive) in the assay on Hs-578T; 4.38 µM (inactive) in the assay on K562; 25.4 µM (inactive) with KM12; 14.9 µM (inactive) in the assay on MDA-MB-435; 3.47 µM (inactive) in the assay with NCI-H522; 33.8 µM (inactive) in the assay on NCI/ADR-RES. For the same compound, the GI50 in the assay on OVCAR-5 is 36.4 µM (inactive); in the assay with OVCAR-8, > 100 µM (inactive); in the assay on SF-539, 92.9 µM (inactive); in the assay with SNB-75, 31.8 µM (inactive); in the assay with T47D, 2.44 µM (inactive); in the assay with U-251, 21.6 µM (inactive).
`O=C1/C(=C/c2ccc3c(c2)OCO3)Sc2scc(-c3ccc(O)c(O)c3)[n+]21`: the GI50 with A549 is 11.1 µM (inactive); in the assay with COLO 205, 2.55 µM (inactive); in the assay on HCC 2998, 1.82 µM (inactive); with HCT-15 it was 1.63 µM; with HL-60, 0.325 µM (active); with HOP-92, 2.65 µM (inactive). The GI50 in the assay with Hs-578T is 7.13 µM (inactive); with K562, 0.506 µM (active); in the assay with KM12 it was 2.65 µM (inactive); with MDA-MB-435, 3.3 µM (inactive); in the assay with NCI-H522, 1.04 µM (active); in the assay with NCI/ADR-RES, 1.87 µM (inactive). For the same compound, the GI50 with OVCAR-5 was 8.32 µM (inactive); in the assay with OVCAR-8, 2.99 µM (inactive); in the assay with SF-539 it was 2.31 µM (inactive); in the assay on SNB-75, 0.644 µM (active); in the assay on T47D, 2.97 µM (inactive); in the assay with U-251, 4.62 µM (inactive).
For `C/C(=C\c1ccccc1)C(=O)NCc1ccc(C(=O)NCCC(C)C)cc1`, the GI50 was 27 µM (inactive) with A498; > 100 µM (inactive) in the assay with A549; > 100 µM (inactive) in the assay on COLO 205; > 100 µM (inactive) in the assay on HCC 2998; greater than 100 µM with HCT-15; 49.5 µM (inactive) with HOP-92. Further, the GI50 is > 100 µM (inactive) in the assay with K562; > 100 µM (inactive) in the assay with KM12; > 100 µM (inactive) with MDA-MB-435; > 100 µM (inactive) in the assay with NCI-H522; 45.5 µM (inactive) in the assay on NCI/ADR-RES; > 100 µM (inactive) in the assay on OVCAR-5. The GI50 in the assay with OVCAR-8 is 37.2 µM (inactive); in the assay on SF-539, 32.9 µM (inactive); in the assay on SNB-75, 21.9 µM (inactive); in the assay on T47D it was > 100 µM (inactive); in the assay on U-251 it was 86.7 µM (inactive).
As to `Cc1ccc(S(=O)(=O)c2ccsc2NC(=O)C(F)(F)F)cc1`, the GI50 in the assay on A498 is 53 µM (inactive); with A549 it was 34 µM (inactive); in the assay on COLO 205 it was 10.8 µM (inactive); with HCC 2998 it was 29 µM (inactive); with HCT-15 it was 34.9 µM; in the assay with HOP-92, 30.9 µM (inactive). In addition, the GI50 in the assay with Hs-578T is 32.7 µM (inactive); in the assay on KM12 it was 31.1 µM (inactive); with MDA-MB-435 it was 44.5 µM (inactive); with NCI-H522 it was 24.4 µM (inactive); in the assay on NCI/ADR-RES, 31.7 µM (inactive); in the assay on OVCAR-5 it was 50.1 µM (inactive). Moreover, the GI50 in the assay with OVCAR-8 was 31.8 µM (inactive); in the assay with SF-539, 39.7 µM (inactive); in the assay with SNB-75, 24.9 µM (inactive); in the assay on T47D, 39.3 µM (inactive); in the assay on U-251 it was 70.8 µM (inactive).
On to `O=C(N/N=C/c1ccc(Cl)cc1)c1ccccc1Nc1ccccc1C(=O)N/N=C/c1ccc(Cl)cc1`, for which the GI50 was > 100 µM (inactive) in the assay on A498; 88.7 µM (inactive) in the assay on A549; > 100 µM (inactive) in the assay on COLO 205; > 100 µM (inactive) with HCC 2998; greater than 100 µM in the assay with HCT-15; > 100 µM (inactive) in the assay with HOP-92. Moreover, the GI50 was > 100 µM (inactive) in the assay on K562; > 100 µM (inactive) in the assay with KM12; > 100 µM (inactive) in the assay on MDA-MB-435; > 100 µM (inactive) in the assay with NCI/ADR-RES; 38.6 µM (inactive) with OVCAR-5; > 100 µM (inactive) with OVCAR-8. For the same compound, the GI50 in the assay on SNB-75, in the assay with SR, in the assay on T47D and with U-251 was > 100 µM (inactive) in each case.
Regarding `COc1ccc2nc3ccc(OC)cc3c(SCc3ccc([N+](=O)[O-])cc3)c2c1`, the GI50 is > 100 µM (inactive) with A498; > 100 µM (inactive) in the assay on A549; > 100 µM (inactive) in the assay with COLO 205; > 100 µM (inactive) in the assay on HCC 2998; greater than 100 µM with HCT-15; > 100 µM (inactive) with HL-60. Also, the GI50 in the assay with HOP-92 is > 100 µM (inactive); in the assay on K562 it was > 100 µM (inactive); in the assay with KM12 it was > 100 µM (inactive); in the assay with MDA-MB-435, > 100 µM (inactive); with NCI-H522 it was 17.3 µM (inactive); in the assay on NCI/ADR-RES it was 67 µM (inactive). In addition, the GI50 in the assay with OVCAR-5 is > 100 µM (inactive); in the assay with OVCAR-8, 52.7 µM (inactive); with SF-539, 39.2 µM (inactive); in the assay on SNB-75, 37.1 µM (inactive); in the assay with SR, > 100 µM (inactive); in the assay with T47D it was > 100 µM (inactive). Moreover, the GI50 with U-251 is > 10 µM (inactive).
As for `N#CC(Cc1ccccc1)N(CCC1=CCCCC1)Cc1ccccc1` (stereo not drawn), the GI50 in the assay on A498 is > 100 µM (inactive); in the assay on A549 it was 54.7 µM (inactive); in the assay on COLO 205, 23.4 µM (inactive); in the assay on HCC 2998, 28.4 µM (inactive); in the assay with HCT-15 it was 42.9 µM; in the assay with HOP-92, 35.1 µM (inactive). Besides, the GI50 in the assay on Hs-578T is > 100 µM (inactive); in the assay with K562, 54.1 µM (inactive); in the assay on KM12, 43.1 µM (inactive); in the assay on MDA-MB-435, 22 µM (inactive); in the assay with NCI-H522 it was 25.3 µM (inactive); in the assay on NCI/ADR-RES, 59.6 µM (inactive). The GI50 is 97.7 µM (inactive) in the assay on OVCAR-5; 72.1 µM (inactive) in the assay with OVCAR-8; 61 µM (inactive) with SNB-75; 47.3 µM (inactive) in the assay on T47D; 81.7 µM (inactive) with U-251.
Take `O=C(CCc1ccccc1)ON1C(=S)NC(c2ccccc2)(c2ccccc2)C1=S`: the GI50 with A498 is > 100 µM (inactive); in the assay on A549, 37.5 µM (inactive); with COLO 205 it was 40.2 µM (inactive); with HCC 2998, 29.4 µM (inactive); in the assay on HCT-15, 28.4 µM; with HL-60, 21.6 µM (inactive). The GI50 in the assay with HOP-92 is 65 µM (inactive); with Hs-578T it was 31.1 µM (inactive); with K562, 14.6 µM (inactive); in the assay with KM12 it was 27.4 µM (inactive); in the assay on MDA-MB-435, 36.9 µM (inactive); with NCI/ADR-RES it was 28.5 µM (inactive). For the same compound, the GI50 in the assay on OVCAR-5 was 61.4 µM (inactive); in the assay with OVCAR-8, 31.2 µM (inactive); in the assay with SF-539, 26.4 µM (inactive); in the assay with SNB-75, 33 µM (inactive); with T47D, 41.6 µM (inactive); in the assay with U-251, 39.4 µM (inactive).
For `N#C/C(=C\c1ccc2ccccc2c1)C(=O)c1ccccc1`, the GI50 was > 85.7 µM (inactive) in the assay on A498; > 100 µM (inactive) in the assay with A549; > 100 µM (inactive) in the assay with COLO 205; > 100 µM (inactive) with HCC 2998; 65 µM in the assay on HCT-15; 30.9 µM (inactive) in the assay with HL-60. Moreover, the GI50 in the assay with Hs-578T was 22.2 µM (inactive); in the assay on K562 it was > 65.8 µM (inactive); with KM12, > 100 µM (inactive); in the assay on MDA-MB-435, 19.4 µM (inactive); with NCI-H522, > 92 µM (inactive); with OVCAR-5, > 100 µM (inactive). The GI50 with OVCAR-8 was 33.7 µM (inactive); with SF-539, > 100 µM (inactive); in the assay on SNB-75 it was 93.1 µM (inactive); in the assay on SR, 37.8 µM (inactive); in the assay with T47D it was 36 µM (inactive); in the assay on U-251, 21.9 µM (inactive).
For `CCC(C)(C)c1ccc(OCCCCNC(=O)c2ccc3ccccc3c2O)c(C(C)(C)CC)c1`, the GI50 with A498 is 29.7 µM (inactive); in the assay on A549 it was 27.2 µM (inactive); in the assay on COLO 205, 14.2 µM (inactive); in the assay with HCC 2998, 38.3 µM (inactive); in the assay with HCT-15, 0.425 µM; in the assay on HL-60 it was 29.1 µM (inactive). The GI50 with Hs-578T was 31.5 µM (inactive); in the assay on K562 it was 4.54 µM (inactive); in the assay with KM12 it was 44.8 µM (inactive); with NCI-H522, 14.6 µM (inactive); with NCI/ADR-RES, 25.4 µM (inactive); with OVCAR-5 it was 69.5 µM (inactive). The GI50 with OVCAR-8 was 27.5 µM (inactive); with SF-539, 33.1 µM (inactive); in the assay with SNB-75 it was 29.8 µM (inactive); in the assay with SR, > 100 µM (inactive); in the assay with T47D it was 31 µM (inactive); with U-251 it was 43 µM (inactive).
`COc1nc(N(C)C)nc2c1[n+](C)cn2C` [HETEROMINE A]: the GI50 with A498 was > 100 µM (inactive); in the assay on A549 it was 46.9 µM (inactive); with COLO 205 it was 30.8 µM (inactive); in the assay with HCT-15 it was greater than 100 µM; with HL-60, 36.6 µM (inactive); in the assay with HOP-92, > 100 µM (inactive). The GI50 is 40.3 µM (inactive) in the assay on Hs-578T; 18.6 µM (inactive) with K562; 27.7 µM (inactive) in the assay with KM12; 74.8 µM (inactive) in the assay on MDA-MB-435; 17.1 µM (inactive) in the assay on NCI-H522; > 100 µM (inactive) in the assay on NCI/ADR-RES. Also, the GI50 in the assay with OVCAR-5 is > 100 µM (inactive); with OVCAR-8 it was 44.1 µM (inactive); in the assay with SF-539, 52.6 µM (inactive); in the assay on SNB-75, > 100 µM (inactive); in the assay on T47D, 41.5 µM (inactive); in the assay on U-251, 15.6 µM (inactive).
